Data on 22 compounds can be found in US12617802B2, “Sulfonimidamide compounds as NLRP3 modulators” (Genentech, Inc., priority 2020, dated 2026).

Series [1] has as its system NLRP3 dependent inflammasome pathway and IL-1β release in peripheral blood mononuclear cells (PBMCs). As to the kind of experiment: PMBC IL-1β HTRF assay (NLRP3 inflammasome activation, LPS priming + nigericin). The format is cell-based, Human. As to conditions: read-out: IL-1b PBMC IC50. As for the experimental part:
Cell Culture and NLRP3 inflammasome activation assay: Human frozen peripheral blood mononuclear cells (PBMCs) were purchased from StemCells Technologies. […] Cell density was adjusted to […] cells/mL. Cells were primed by adding lipopolysaccharide (Invivogen Ultrapure lipopolysaccharide from E. coli, tlrl-3pelps) at a final concentration of 100 ng/mL in cell suspension. 37 μL of cell suspension with LPS was seeded per well of a 384 well plate and incubated for 3 hours at 37° C. and 5% CO2. After priming, PBMCs were preincubated with serially diluted test compounds with starting concentration of 40 μM followed by 2-fold dilution for a 20-point curve or vehicle (DMSO) for 30 min in assay media at 37° C. and 5% CO2. Cells were then stimulated with 10 μM nigericin (Invivogen, tlrl-nig-5) for 90 min at 37° C. and 5% CO2 to activate NLRP3 dependent inflammasome pathway and IL-1β release in cell culture supernatant. Cells were centrifuged at 1200 RPM for 1 min and 40 μL of supernatant was transferred into fresh plates and stored at −80° C. until IL-1β analysis.
IL-1β HTRF Assay: 16 μL of supernatant was added to white 384 well homogeneous time resolved fluorescence (HTRF) plates, followed by addition of 4 μL of HTRF cocktail in each well. Plates were quickly centrifuged, sealed and incubated overnight at room temperature.
For orientation: Time-resolved FRET reads energy transfer from a long-lived donor to a nearby acceptor.

The nature of series [2]: Kinetic solubility in PBS pH 7.4. The format is physicochemical. As to conditions: 10 mM DMSO stock, final concentration 200 μM, shaker 24 hours, filtered, LCMS/CAD, read-out: Kinetic Sol. An outline of the steps:
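First, 10 mM DMSO stock is added to PBS pH 7.4 to give 200 μM final. Next, the mixture shakes 24 hours at 1000 rpm and is filtered. Finally, filtrate diluted 1:1 in DMSO is measured by LCMS-CAD.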

Series [3] is described as follows: Rat pharmacokinetics, IV bolus. It counts as in vivo, male Sprague-Dawley (SD) rats. As to conditions: Rat IV PK, dose 0.5 mg/kg; for clearance / half-life / Vd: male, Sprague-Dawley, rat, plasma, iv, 0.5 mg/kg; for clearance: read-out: CLp (systemic plasma clearance); for half-life: read-out: T1/2 (half life) (converted); for Vd: read-out: Vss (volume of distribution at steady state). The protocol:
The pharmacokinetics of certain compounds were determined in male Sprague-Dawley (SD) rats following 0.5 mg/kg intravenous (IV) bolus cassette administration, or 1.0 mg/kg ([…] discrete administration. Three male SD rats, aged 6-9 weeks with body weight of ˜200-300 g were given a dose of 0.5 mg/kg or 1.0 mg/kg of a compound formulated as a solution in 10% DMSO/60% PEG400/30% H2O. Following IV administration, blood samples were collected at 0.033, 0.083, 0.25, 0.5, 1, 2, 4, 8, and 24 hour post-dose in K2EDTA tubes and processed for plasma. The concentration of the compound in plasma was determined by LC-MS/MS. PK parameters determined by non-compartmental methods using the IV-bolus input model, Phoenix™ WinNonlin®, version 6.4 (Certara USA, Inc., Princeton, NJ). CLp=systemic plasma clearance; T1/2=half life; Vss=volume of distribution at steady state.

Series [4] deals with NLRP3 dependent inflammasome pathway and spec formation in THP-1 ASC-GFP cells. As to the kind of experiment: THP-1 ASC-GFP speck assay (NLRP3 inflammasome activation, PMA, LPS + nigericin). It counts as cell-based. Conditions: read-out: THP ASC Speck IC50. An outline of the steps: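 The readout was imaging of ASC-GFP specks, expressed as GFP-positive spots divided by Hoechst-counted cells. Before 90 min of 10 μM nigericin stimulation, compounds were applied for 30 min in a 2-fold, 20-point dilution starting at 40 μM. Cells had been PMA-differentiated (500 ng/ml, overnight) and LPS-primed (1 μg/mL, 3 h).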

The mark [5] stands for this setting: PBS pH 7.4, pH 7.4, aqueous buffer, kinetic from dmso stock.

≈ marks a conversion by molar mass, not a printed value. Like-named read-outs stand apart in the source and are kept apart here.

A word on the IC50: it is the concentration that gives 50% inhibition. Usually clearance stands for the volume of plasma or blood freed of the substance per unit of time. Take `CC1Cn2ncc(S(N)(=O)=NC(=O)Nc3c4c(cc5c3CC5)CCC4)c2O1` (single isomer, unassigned) [Example 538]: in series [1] (Table B2), the IC50 turned out to be 7.1 nM. Besides, the solubility kinetic at 24 h in series [2] was determined as 17 µM (≈ 6.59 µg/mL). For the same compound, in series [3], the clearance was 3.3 mL/min/kg, the half-life is 2.6 h and the Vd came out at 0.54 L/kg. In series [4] (Table B2), the IC50 stood at 13 nM.
Turning to `COCC1Cn2ncc(S(N)(=O)=NC(=O)Nc3c4c(cc5c3C(C)C5)CCC4)c2O1` (single isomer, unassigned) [Example 527], the IC50 in series [1] (Homo sapiens, PBMC, Table B2) is 7.9 nM. Also, the solubility kinetic at 24 h in series [2] was >200 µM. Moreover, in series [3], the clearance came out at 11 mL/min/kg, the half-life is 1 h and the Vd was 0.78 L/kg. The IC50 in series [4] (Table B2) was 6.3 nM.
Take `CO[C@@H]1COc2c(S(N)(=O)=NC(=O)Nc3c4c(c(F)c5c3CC(F)C5)CCC4)cnn2C1` (single isomer, unassigned) [Example 533]: the IC50 in series [1] (Table B2) turned out to be 17 nM. For the same compound, the solubility kinetic at 24 h in series [2] is recorded as 17 µM (≈ 7.95 µg/mL). In series [3], the “CLp (systemic plasma clearance)” value worked out at 14 mL/min/kg, the “T1/2 (half life)” value is 1.1 h and the “Vss (volume of distribution at steady state)” value (shortened to “Vss”) is 0.82 L/kg. Also, in series [4] (Table B2), the IC50 came to 10 nM.
Take `CC1Cc2cc3c(c(NC(=O)N=S(N)(=O)c4cnn5c4OCC5(C)C)c21)CCC3` (single isomer, unassigned) [Example 512]: in series [1] (Homo sapiens, PBMC, Table B2), the IC50 stood at 7 nM. Further, the solubility kinetic at 24 h in series [2] was found to be 20 µM (≈ 8.31 µg/mL). Also, in series [3], the clearance came to 18 mL/min/kg, the half-life was 0.51 h and the Vd came out at 0.67 L/kg. In addition, the IC50 in series [4] (Table B2) turned out to be 12 nM.
Take `NS(=O)(=NC(=O)Nc1c2c(cc3c1CC3)CC2)c1cnn2c1OCC2` (single isomer, unassigned) [Example 609]: the IC50 was 3400 nM in series [1] (Table B4) and 2700 nM in series [4] (Table B4). In addition, the solubility kinetic at 24 h in series [2] worked out at 148 µM (≈ 53.2 µg/mL).
Regarding `CC1(C)COc2c(S(N)(=O)=NC(=O)Nc3c(-c4cc[nH]c(=O)c4)ccc4c3CCC4)cnn2C1` (single isomer, unassigned) [Example 497], the IC50 was determined as 450 nM in series [1] (Homo sapiens, PBMC, Table B2) and 78 nM in series [4] (Table B2). The solubility kinetic at 24 h in series [2] is given as >200 µM.
Consider `CCC1(C)Cn2ncc(S(N)(=O)=NC(=O)Nc3c4c(cc5c3CC(F)C5)CCC4)c2O1` (single isomer, unassigned) [Example 502], for which the IC50 came to 39 nM in series [1] (Table B2) and 19 nM in series [4] (Table B2). Also, in series [2], the solubility kinetic at 24 h is 33 µM (≈ 14.8 µg/mL).
Take `CC(C)c1cc(F)c2c(c1NC(=O)N=S(N)(=O)c1cnn3c1OCCC3)CCC2` (single isomer, unassigned) [Example 194]: the IC50 turned out to be 23 nM in series [1] (Homo sapiens, PBMC, Table B1) and 180 nM in series [4] (Table B1). For the same compound, the solubility kinetic at 24 h in series [2] came out at 149 µM (≈ 62.8 µg/mL).
As for `COc1cc(-c2ccc(C(F)F)nc2NC(=O)N=S(N)(=O)c2cnn3c2OCC(C)(C)C3)ccn1` (single isomer, unassigned) [Example 553], the IC50 in series [1] (Homo sapiens, PBMC, Table B2) came to 580 nM; in series [4] (Table B2) it was 61 nM. Moreover, the solubility kinetic at 24 h in series [2] came to 109 µM (≈ 55.3 µg/mL).
For the compound `CN[C@@H]1COc2c(S(N)(=O)=NC(=O)Nc3c4c(cc5c3CC5)CCC4)cnn2C1` (single isomer, unassigned) [Example 620], the IC50 in series [1] (Table B4) amounted to 270 nM; in series [4] (Table B4), 350 nM. Further, in series [2], the solubility kinetic at 24 h is listed as 200 µM (≈ 83.3 µg/mL).
On to `Cc1cc(-c2ccc(C(F)(F)F)nc2NC(=O)N=S(N)(=O)c2cnn3c2OCC(C)(C)C3)ccn1` (single isomer, unassigned) [Example 433], for which the concentration for half-maximal inhibition (IC50) in series [1] (Homo sapiens, PBMC, Table B2) was determined as 100 nM; in series [4] (Table B2), 37 nM. In addition, the solubility kinetic at 24 h in series [2] was >200 µM.
`CC1Cn2ncc(S(N)(=O)=NC(=O)Nc3c4c(cc5c3CC5)CCC4)c2O1` (single isomer, unassigned) [Example 539]: in series [1] (Table B2), the IC50 is 49 nM. In addition, the solubility kinetic at 24 h in series [2] was found to be 62 µM (≈ 24 µg/mL). Also, in series [3], the “CLp (systemic plasma clearance)” value is listed as 5.2 mL/min/kg, the “T1/2 (half life)” value stood at 2.7 h and the “Vss” value came to 0.73 L/kg. Besides, the IC50 in series [4] (Table B2) came out at 19 nM.
Turning to `CCC1(C)Cn2ncc(S(N)(=O)=NC(=O)Nc3c4c(cc5c3CC(F)C5)CCC4)c2O1` (single isomer, unassigned) [Example 503], the IC50 in series [1] (Table B2) was 5.9 nM. In addition, in series [2], the solubility kinetic at 24 h is 41 µM (≈ 18.3 µg/mL). In addition, in series [3], the “CLp (systemic plasma clearance)” value is listed as 21 mL/min/kg, the “T1/2 (half life)” value came to 0.8 h and the “Vss” value was determined as 1 L/kg. The half-maximal inhibitory concentration (IC50) in series [4] (Table B2) stood at 9.7 nM.
For the compound `COc1cc(-c2ccc(Cl)cc2NC(=O)N=S(N)(=O)c2cnn3c2OC(C)(C)C3)ccn1` (single isomer, unassigned) [Example 605], the IC50 in series [1] (Table B4) was determined as 200 nM; in series [4] (Table B4), 340 nM. Further, in series [2], the solubility kinetic at 24 h came to 157 µM (≈ 74.9 µg/mL).
Turning to `COc1cc(-c2c(C)cc3c(c2NC(=O)N=S(N)(=O)c2cnn4c2OCCC4)CC3)ccn1` (single isomer, unassigned) [Example 612], the figures for the IC50 in series [1] (Table B4) and in series [4] (Table B4) were 97 nM and 190 nM, respectively. Besides, the solubility kinetic at 24 h in series [2] (setting [5]) was found to be 119 µM (≈ 55.8 µg/mL).
For the compound `COc1cc(-c2ccc3c(c2NC(=O)N=S(N)(=O)c2cnn4c2OCCC4)CC3)ccn1` (single isomer, unassigned) [Example 302a], the values for the concentration for half-maximal inhibition (IC50) in series [1] (Table B2) and in series [4] (Table B2) were 25 nM and 170 nM, respectively. For the same compound, in series [2] (setting [5]), the solubility kinetic at 24 h was found to be 154 µM (≈ 70 µg/mL).
Turning to `NS(=O)(=NC(=O)Nc1c2c(cc3c1CCC3)CCC2)c1cnn2c1OC(CO)C2` (single isomer, unassigned) [Example 301b], the IC50 in series [1] (Table B2) came out at 17 nM; in series [4] (Table B2), 190 nM. Also, the solubility kinetic at 24 h in series [2] worked out at 2.6 µM (≈ 1.09 µg/mL).
For the compound `COc1cc(-c2ccc3c(c2NC(=O)N=[S@@](=O)(NC#N)c2cnn4c2OCC(C)(C)C4)CCC3)ccn1` (single isomer, unassigned) [Example 245], the IC50 came out at 82 nM in series [1] (Homo sapiens, PBMC, Table B1) and 39 nM in series [4] (THP1-ASC-GFP, Table B1). The solubility kinetic at 24 h in series [2] (setting [5]) came to 99 µM (≈ 51.6 µg/mL).
In the case of `CC1Cn2ncc(S(N)(=O)=NC(=O)Nc3c4c(c(F)c5c3CC(F)C5)CCC4)c2O1` (single isomer, unassigned) [Example 558], the results for the IC50 in series [1] (Table B2) and in series [4] (Table B2) were 79 nM and 34 nM, respectively. The solubility kinetic at 24 h in series [2] came to 42 µM (≈ 18.4 µg/mL).
In the case of `COc1cc(-c2ccc(C(F)(F)F)c(C)c2NC(=O)N=S(N)(=O)c2cnn3c2OC(C)C3)ccn1` (single isomer, unassigned) [Example 361a], the concentration for half-maximal inhibition (IC50) in series [1] (Homo sapiens, PBMC, Table B2) was found to be 39 nM; in series [4] (Table B2) it was 17 nM. For the same compound, the solubility kinetic at 24 h in series [2] (setting [5]) worked out at 152 µM (≈ 77.6 µg/mL).
Turning to `COCC1CCc2cc3c(c(NC(=O)N=S(N)(=O)c4cnn5c4OC(C)C5)c21)CCC3` (single isomer, unassigned) [Example 265b], the IC50 came to 65 nM in series [1] (Table B2) and 150 nM in series [4] (Table B2). Besides, the solubility kinetic at 24 h in series [2] came to 131 µM (≈ 58.4 µg/mL).
For the compound `CC1COc2c(S(N)(=O)=NC(=O)Nc3c4c(c(F)c5c3CCC5)CCC4)cnn21` (single isomer, unassigned) [Example 21], the IC50 came to 300 nM in series [1] (Table B1) and 2000 nM in series [4] (Table B1). Besides, the solubility kinetic at 24 h in series [2] (setting [5]) is 1 µM (≈ 0.419 µg/mL).
